Earlier results, collected in patent publication US20090104212A1, “METHODS AND SYSTEMS FOR TREATING CELL PROLIFERATION DISORDERS USING TWO-PHOTON SIMULTANEOUS ABSORPTION” (Immunolight, priority 2007, published 2009).
Where two headings read alike, the source gives them in different places. Non-standard residues stand in square brackets, D forms with d. Residues, ends and D or L forms follow the SMILES beside them. Bpa = N[CH](Cc1ccc(C(=O)c2ccccc2)cc1)C(=O)O; 2Nal = N[CH](Cc1ccc2ccccc2c1)C(=O)O; Aib = CC(C)(N)C(=O)O

Legend:
tumors = details: in vivo
[1] = for kSET (Average): average over Λex 224, 266, 280 nm

Q: With CC(=O)[O-].CC(=O)[O-].CCc1c(CC)c2cc3nc(cnc4cc(OCCOCCOCCOC)c(OCCOCCOCCOC)cc4ncc4nc(cc1[n-]2)C(CCCO)=C4C)C(C)=C3CCCO.O.[Lu+3] [Lutetium texahyrin, Motexafin lutetium] as the compound, how does the “duration of skin photosensitivity” value (clinical use) read?
A: 24 to 48 h

Q: What about the Length of photosensitization (in vivo) of the same compound?
A: 24 to 48 h

Q: What about the “selectivity for tumors compared to normal tissues” value (tumors) of the same compound?
A: one of the greatest reported selectivities for tumors

Q: What does the source list for CC(NC(=O)C(C)(C)NC(=O)C(Cc1ccc(C(=O)c2ccccc2)cc1)NC(=O)C(C)(C)NC(=O)C(C)NC(=O)C(C)(C)NC(=O)C(Cc1ccc2ccccc2c1)NC(=O)C(C)(C)N)C(=O)O (centres unmarked) [Compound 1B] (H-[Aib][2Nal][Aib]A[Aib][Bpa][Aib]A-OH; configuration not given here)?
A: ESSET ([1]; Λex 224 nm): 96.3; kSET ([1]; Λex 224 nm): 2.44e+08 s⁻¹; ESSET ([1]; Λex 266 nm): 95; kSET ([1]; Λex 266 nm): 1.8e+08 s⁻¹; ESSET ([1]; Λex 280 nm): 94; kSET ([1]; Λex 280 nm): 1.36e+08 s⁻¹

Q: For CC(NC(=O)C(C)(C)NC(=O)C(Cc1ccc(C(=O)c2ccccc2)cc1)NC(=O)C(C)(C)NC(=O)C(Cc1ccc2ccccc2c1)NC(=O)C(C)(C)NC(=O)C(C)NC(=O)C(C)(C)N)C(=O)O (single isomer, unassigned) [Compound 2B], which “kSET (Average)” value [1] is on record?
A: 3.9e+07 s⁻¹

Q: What about the ESSET ([1]; Λex 224 nm) of the same compound?
A: 77

Q: What about the kSET ([1]; Λex 224 nm) of the same compound?
A: 3.1e+07 s⁻¹

Q: What about the ESSET ([1]; Λex 266 nm) of the same compound?
A: 81

Q: What about the kSET ([1]; Λex 266 nm) of the same compound?
A: 3.9e+07 s⁻¹

Q: And the ESSET ([1]; Λex 280 nm)?
A: 83

Q: And the kSET ([1]; Λex 280 nm)?
A: 4.7e+07 s⁻¹

Q: Which “kSET (Average)” value [1] does the source give for CC1NC(=O)C(C)(C)NC(=O)C(Cc2ccc(C(=O)c3ccccc3)cc2)NC(=O)C(C)(C)NC(=O)C(C)NC(=O)C(C)(C)NC(=O)C(Cc2ccc3ccccc3c2)NC(=O)C(C)(C)NC1=O (centres unmarked) [Compound 1A] (cyclo([Aib][2Nal][Aib]A[Aib][Bpa][Aib]A); configuration not given here) here?
A: 3.67e+07 s⁻¹

Q: What about the ESSET ([1]; Λex 224 nm) of the same compound?
A: 80

Q: What about the kSET ([1]; Λex 224 nm) of the same compound?
A: 3.8e+07 s⁻¹

Q: What about the ESSET ([1]; Λex 266 nm) of the same compound?
A: 79

Q: And the kSET ([1]; Λex 266 nm)?
A: 3.6e+07 s⁻¹

Q: And the ESSET ([1]; Λex 280 nm)?
A: 79

Q: What about the kSET ([1]; Λex 280 nm) of the same compound?
A: 3.6e+07 s⁻¹
